One series concerns the target T1, DP-IV (Homo sapiens, UniProt P27487).
T1 construct: DP-IV also exists as a soluble circulating form in plasma; from tissue; host or cells: human plasma
The series can be described thus: DP-IV activity colorimetric assay (Gly-Pro-4-NA hydrolysis, 405 nm) in human plasma. It counts as biochemical. The note with it: for %-Inhibition DP-IV / inhibition at 100000 µM: unspecific enzyme inhibitors and solvents at 100 mM. The method, then: DP-IV activity was measured by a colorimetric assay.
400 μL assay buffer (9.5 g HEPES/l distilled water, pH adjusted to 7.0, product number H4034, Sigma, St. Louis, Mo.), 150 μL human plasma and 100 μL inhibitor solution (or solvent) were transferred into a photometer cuvette, gently mixed and pre-incubated at 37° C. for 3 minutes. The assay was then started by addition of 70 μL substrate solution (8.6 mg Gly-Pro-4-NA in 10 ml assay buffer).
DP-IV activity is expressed as the linear change in optical density over 20 min (Δ Abs/min).
Full inhibition (100%) indicated no apparent increase in absorption.
100% activity in a test sample indicated the same increase in absorption compared in a sample with no inhibitor. Zero activity (0%) indicated no apparent increase in absorption.

A short description of series [1]: Stability of individual flavonol-glycosides during incubation conditions. It counts as physicochemical. The note with it: 2 g extract (Example 2)/100 ml incubation media.
The next series concerns CaCO2 cells. The series can be described thus: Absorption (uptake) of quercetin-glycosides in CaCO2 cells. Type of series: in vitro ADME. The note with it: 60 minutes; for % uptake by CaCO2 cells (% of flavonol-glycosides present in incubation media): 2 g guava extract/100 ml incubation media, 37° C., mean of 5 incubations. The method, then:
Incubation conditions: 37° C. for 60 minutes (5 replicate incubations)
Data evaluation: Ratio of peak areas of individual flavonol-glycosides obtained from HPLC analysis of incubation media (immediately after preparation and after 60 minutes of incubation) and the cell content.
Cells were grown in 75 cm^2 culture-flasks (T75) and subcultured after one week (every other day washed with PBS buffer, removed with trypsin and transferred to an new culture flask).
7 to 8 days until confluency was reached. The cells were washed with PBS buffer and incubated with the flavonol for 60 minutes.
After the corresponding incubation time, 900 μl of incubation medium used was taken from each well and mixed with 100 μl formic acid. The cells were washed with PBS buffer and removed using 1 ml of 10% formic acid. Cells were sonicated 3 times for 30 seconds, centrifuged for 10 minutes and the pellets were discarded. The supernatant was used as sample for HPLC.

T1 sequence (P27487 39-766 limits assumed): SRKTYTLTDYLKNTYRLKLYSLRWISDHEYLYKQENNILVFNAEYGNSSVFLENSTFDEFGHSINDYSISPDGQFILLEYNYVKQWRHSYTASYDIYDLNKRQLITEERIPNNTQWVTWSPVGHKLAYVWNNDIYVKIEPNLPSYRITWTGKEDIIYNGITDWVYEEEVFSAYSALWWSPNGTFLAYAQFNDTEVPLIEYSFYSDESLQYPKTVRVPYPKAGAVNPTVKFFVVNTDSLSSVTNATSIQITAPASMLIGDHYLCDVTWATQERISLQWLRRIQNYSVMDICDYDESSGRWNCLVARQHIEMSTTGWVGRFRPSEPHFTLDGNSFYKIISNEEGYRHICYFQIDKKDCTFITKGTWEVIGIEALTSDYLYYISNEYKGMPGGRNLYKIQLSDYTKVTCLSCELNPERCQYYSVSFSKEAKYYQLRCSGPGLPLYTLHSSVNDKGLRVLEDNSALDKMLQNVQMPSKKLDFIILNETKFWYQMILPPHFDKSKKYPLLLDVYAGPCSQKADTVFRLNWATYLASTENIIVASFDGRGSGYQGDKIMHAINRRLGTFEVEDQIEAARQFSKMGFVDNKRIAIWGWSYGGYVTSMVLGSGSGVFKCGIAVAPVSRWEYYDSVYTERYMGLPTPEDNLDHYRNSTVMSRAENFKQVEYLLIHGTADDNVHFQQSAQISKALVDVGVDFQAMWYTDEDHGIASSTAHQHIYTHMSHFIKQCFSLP

On to `C[S+](C)[O-]` [DMSO], for which the “%-Inhibition DP-IV” value on DP-IV (human plasma) was 75.3%.
As for `O=C(O)CN(CCN(CC(=O)O)CC(=O)O)CC(=O)O` [EDTA], the “%-Inhibition DP-IV” value at DP-IV (human plasma) is listed as 24.0%.
For the compound `CCO` [Ethanol], on DP-IV (human plasma), the inhibition (as a rule, the drop in the measured response relative to a control, in per cent) at 100000 µM came out at 52.8%.
Consider `Cl.NCCN` [Ethylendiamine•HCl], for which the “%-Inhibition DP-IV” value at DP-IV (human plasma) amounted to 19.0%.
Still for that read-out and setting: the value for `OCCS` [Mercaptoethanol] was 15.3%.
In the case of `CO` [Methanol], the inhibition at 100000 µM against DP-IV (human plasma) was 59.7%.
In the case of `Cn1ccnc1S` [Methimazol], the “%-Inhibition DP-IV” value at DP-IV (human plasma) turned out to be 10.0%.
As for `C[CH2][Hg][S]c1ccccc1C(=O)[O-].[Na+]` [Thimerosal], the “%-Inhibition DP-IV” value at DP-IV (human plasma) was under 1.0%.
In the case of `[Zn+2]` [Zinc^++], the “%-Inhibition DP-IV” value on DP-IV (human plasma) is recorded as 19.3%.
On to `O=c1c(O[C@@H]2O[C@H](CO)[C@@H](O)[C@H](O)[C@H]2O)c(-c2ccc(O)c(O)c2)oc2cc(O)cc(O)c12` [compound 4], for which the “Stability 60 min. at 37° C., pH = 7” value in series [1] is given as 98.2 % from time = 0. Further, the “% uptake by CaCO2 cells (% of flavonol-glycosides present in incubation media)” value with CaCO2 cells is given as 4.5%.
As to `O=c1c(O[C@@H]2OC[C@H](O)[C@H](O)[C@H]2O)c(-c2ccc(O)c(O)c2)oc2cc(O)cc(O)c12` [compound 6], the IC50 (commonly the concentration needed to halve the response being measured) on DP-IV (Concentration for 50% inhibition of DPIV, isolated flavonol-glycosides tested at 100-500 μg/ml, estimated) is 400 µM. Moreover, the “Stability 60 min. at 37° C., pH = 7” value in series [1] came out at 98.0 % from time = 0. In addition, the “% uptake by CaCO2 cells (% of flavonol-glycosides present in incubation media)” value with CaCO2 cells worked out at 5.3%.
In turn, `O=c1c(O[C@@H]2OC[C@H](O)[C@H](O)[C@H]2O)c(-c2ccc(O)c(O)c2)oc2cc(O)cc(O)c12` [guaijaverin, quercetin-3-O-alpha-L-arabinopyranoside] registered an IC50 against DP-IV (concentration yielding a DP-IV inhibition of around 50%, human plasma, 70-280 μg/ml tested) of 322 to 483 µM. In addition, the “DP-IV inhibition (in words)” value on DP-IV (human plasma) is on record as “clear, dose dependent inhibition”. In addition, the “concentration yielding a DP-IV inhibition of around 50%” value on DP-IV (human plasma, read from dose/response curve) is reported as 100-150 μg/assay volume. In addition, at DP-IV (sample adjusted to contain 180 μg guaijaverin/ml test assay, human plasma (FIG. 6)), the “inhibition of DP-IV” value is recorded as 50%. In addition, the “absorption ranking in CaCO2 cells (in words)” value with CaCO2 cells (2 g guava extract/100 ml) is reported as “best absorption”.

These data come from patent publication US20080293644A1, “GUAVA EXTRACT” (priority 2007, published 2008).
